The subject of series [1] is L02 cells. Kind of series: Quantitation of intracellular ROS (DCFH-DA) in H2O2-induced L02 cells. Format: cell-based. Conditions: 5 µM final concentration, DCFH-DA fluorescence. How it is done:
The quantitation of intracellular ROS was detected by the ROS assay kit purchased from Beyotime (Shanghai, China) following the manufacturer’s instructions. The cell pretreatment was the same as hepatoprotective activity screening. Four hours later, after the addition of H2O2, the cells were incubated with 10 µM DCFH-DA (final concentration in RPMI-1640 medium) for 30 min, and were then washed three times with medium. Finally, the fluorescence intensity was recorded by a microplate reader with the excitation wavelength at 488 nm and the emission wavelength at 525 nm and then the fluorescence photos were taken by a cell imaging multi-mode reader (Cytation 1, BioTek, Winooski, VT, USA). Each group was performed in triplicate and the fluorescence values were calibrated by the corresponding cell viabilities using the SRB method.

Series [2] relates to L02 cells. The experiment in a line: Hepatoprotective activity on L02 cells against H2O2-induced oxidative stress (SRB cell viability). It is filed as cell-based. Conditions: then 300 µM H2O2 for 4 h, % of normal control, H2O2 model group 68.2% (65.2% for vitamin C); for viability at 5 µM: Homo sapiens, L02, 12 h pretreatment. As to the method:
The L02 cells were purchased from BeNa Culture Collection Company (BNCC, Beijing, China) and cultured in RPMI-1640 medium supplemented with 10% fetal bovine serum (FBS) and 1% penicillin–streptomycin solution at 37 °C under 5% CO2 in a humidified incubator. The H2O2 induced oxidative stress model of L02 cell was established according to the reported method with slight modifications. Firstly, 120 µL L02 cell suspension (1 × 10^4 cells) was seeded in a 96-well plate and incubated for 24 h, followed by the addition of 15 µL PBS buffer (corresponding to the addition of tested samples). […] The cell viability was evaluated by the SRB test kit (BestBio, Shanghai, China) following the manufacturer’s instructions. According to the above result, after the 24 h incubation, the L02 cells were pretreated with 15 µL samples of various concentrations or PBS (H2O2-induced model and normal control group) for 12 h. Then, 15 µL H2O2 solution (300 µM) or PBS (normal control group) was added and maintained for 4 h. Finally, the cell viability was tested by the SRB method and expressed as a percentage of the normal control group. Each group was performed in triplicate.

A short description of series [3]: Ferric reducing antioxidant power (FRAP) assay. Format: biochemical. The settings on record: for FRAP total antioxidant activity (result in words): isolated compounds, 6.25 to 100 µM, positive control vitamin C. How it is done:
The FRAP assay was performed according to the methodology reported in [26, 27] with minor modifications. Briefly, the FRAP working solution, composed of 300 mM acetate buffer (pH 3.6), 10 mM TPTZ solution and 20 mM FeCl3·6H2O solution in a ratio of 10:1:1 (v/v/v), was freshly prepared and warmed at 37 °C before use. Then, 190 µL FRAP working solution and 10 µL samples were added in 96-well plates and incubated at 37 °C for 10 min. The absorbance of the reaction mixture was collected by a microplate reader at 593 nm. A standard curve was established by FeSO4 at final concentrations ranging from 1.56 to 200 µM, and the total antioxidant activities of the extracts, compounds and positive controls (vitamin C) were calculated by the standard curve and expressed in terms of the FeSO4 value (µM). All the results were shown by the average values of the three biological replications.

In series [4] the target is T1, rhCOX-2 (Homo sapiens, UniProt P35354).
T1 sequence (P35354 18-604): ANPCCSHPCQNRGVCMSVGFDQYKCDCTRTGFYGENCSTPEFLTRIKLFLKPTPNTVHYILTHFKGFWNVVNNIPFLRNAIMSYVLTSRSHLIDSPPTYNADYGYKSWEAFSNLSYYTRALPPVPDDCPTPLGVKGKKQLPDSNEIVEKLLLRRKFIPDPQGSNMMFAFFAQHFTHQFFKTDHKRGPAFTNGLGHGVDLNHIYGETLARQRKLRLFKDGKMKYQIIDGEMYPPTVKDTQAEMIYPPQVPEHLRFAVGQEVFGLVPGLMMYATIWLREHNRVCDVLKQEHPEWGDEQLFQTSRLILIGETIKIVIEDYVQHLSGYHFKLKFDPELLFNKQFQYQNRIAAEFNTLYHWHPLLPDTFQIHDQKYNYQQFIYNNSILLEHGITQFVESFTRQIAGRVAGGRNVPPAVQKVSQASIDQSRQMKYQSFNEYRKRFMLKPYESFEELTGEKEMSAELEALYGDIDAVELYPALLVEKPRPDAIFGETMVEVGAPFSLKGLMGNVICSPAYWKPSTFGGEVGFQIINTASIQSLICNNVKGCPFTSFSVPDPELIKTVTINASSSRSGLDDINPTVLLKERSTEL
The experiment in a line: COX-2 inhibition assay (COX-2 inhibitor screening kit, fluorescence probe method).
Description: COX-2 inhibition activity was screened using a commercial assay kit by the fluorescence probe method, following the manufacturer’s instructions, based on a two-step reaction: the substrate (arachidonic acid) was firstly catalyzed by COX-2 to generate PGG2, which was then further catalyzed by COX-2 to produce PGH2. During the second step, the probe without fluorescence added in the reaction system was simultaneously catalyzed to probe with strong fluorescence. […] After incubation for 10 min at 37 °C, 5 µL COX-2 substrate and 5 µL COX-2 probe were added and incubated in darkness for 10 min. Then, the fluorescence intensity was recorded by microplate reader with the excitation wavelength at 560 nm and the emission wavelength at 590 nm. The COX-2 activity inhibition percentage was calculated by the following equation: COX-2 activity inhibition (%) = [(F100% activity control − Fsample)/(F100% activity control − Fblank control)] × 100%(2) where F100% activity control, Fsample and Fblank control represent the fluorescence intensity of the 100% enzyme activity control, samples or positive control, and blank control, respectively.

A short description of series [5]: DPPH radical scavenging activity assay. It is filed as biochemical. Conditions: for Antioxidant potential in DPPH and FRAP (result in words): both methods (DPPH and FRAP); for IC50: isolated compounds, final concentrations 6.25 to 100 µM. How it is done: The 2,2-diphenyl-1-picrylhydrazyl (DPPH) radical scavenging abilities of the C. spinarum extracts and isolated compounds were assessed by the previously reported method. The reaction mixtures containing 190 µL DPPH solution (100 µM) and 10 µL samples (extracts or compounds) or positive control (vitamin C) solutions with various concentrations or blank control (methanol) were placed in the 96-well plate, and incubated in darkness at room temperature for 30 min. Then, the absorbance of the reaction mixture was measured by the microplate reader at 517 nm. All groups were tested in triplicate and the DPPH radical scavenging activity was calculated by the following equation:DPPH-radical scavenging percentage (%) = [(Acontrol − Asample)/Acontrol] × 100%(1)
Acontrol and Asample represent the absorbance of the blank control and samples or positive control, respectively. Additionally, the IC50 values, which were defined as the effective sample concentration when DPPH radical was scavenged by 50%, were calculated by the GraphPad Prism software.
A general note: Loss of DPPH colour is used to gauge radical scavenging.

“Also recorded” adds a separate entry of the source. Marks after values point to notes of the source that are not given here.

As to `COc1cc([C@H]2c3cc(O)c(OC)cc3C[C@@H](CO)[C@@H]2CO[C@@H]2O[C@H](CO)[C@@H](O)[C@H](O)[C@H]2O)ccc1O` [Compound 2, (+)-isolariciresinol 3a-O-β-D-glucopyranoside], the “ROS quantity versus H2O2-induced model group” value in series [1] is “statistically significant decreases in ROS quantity”. In series [2], the viability at 5 µM was found to be 79.4%. In addition, the “FRAP total antioxidant activity (result in words)” value (“FRAP total antioxidant activity” below) in series [3] is recorded as “higher reducing capacities than the positive control”. The IC50 in series [4] stood at 0.3 µM.
With `CC(=O)c1ccccc1O[C@@H]1OC(CO[C@@H]2OC[C@@H](O)[C@H](O)[C@H]2O)[C@@H](O)[C@H](O)[C@H]1O` (stereo partly drawn) [Compound 5, acetophenone-2-O-β-xylopyranosyl-(1→6)-O-β-glucopyranoside], the “Antioxidant potential in DPPH and FRAP (result in words)” value in series [5] was “no obvious antioxidant potential”.
As to `COc1cc([C@@H](O)[C@@H](C)O)ccc1O` [Compound 6, erythro-1-(3-methoxy-4-hydroxy-phenyl)-propan-1,2-diol], the “FRAP total antioxidant activity” value in series [3] is reported as “higher reducing capacities than the positive control”.
Still for that read-out and setting: with `COc1cc([C@@H](O)[C@H](C)O)ccc1O` [Compound 7, threo-1-(3-methoxy-4-hydroxy-phenyl)-propan-1,2-diol] the entry was “higher reducing capacities than the positive control”.
For `O=C(O)Cc1cccc(C(=O)O)c1` [Compound 8, 3-carboxymethyl-benzoic acid], in series [3], the “FRAP total antioxidant activity” value was “did not show any activities”. Moreover, the “Antioxidant potential in DPPH and FRAP (result in words)” value in series [5] is on record as “no obvious antioxidant potential”. Moreover, in series [5] (highest tested concentration (100 µM)), the “DPPH scavenging rate at the highest tested concentration” value is given as “lower than 10%”. Also, the “COX-2 inhibition activity (result in words)” value in series [4] (all tested concentrations, 0.04 to 25 µM) is given as “no COX-2 ability in all tested concentrations; also recorded: did not show any activities”.
Regarding `O=C(O)c1ccc(O)c(O)c1` [Compound 9, protocatechuic acid], the “ROS quantity versus H2O2-induced model group” value in series [1] was “statistically significant decreases in ROS quantity”. Further, the viability at 5 µM in series [2] stood at 80.9%. The “FRAP total antioxidant activity” value in series [3] is recorded as “higher reducing capacities than the positive control”. Moreover, in series [5] (means ± SD (n = 3)), half-maximal inhibition (IC50) was put at 16.5 ± 1.2 µM.
With `O=C1O[C@H]([C@@H](O)CO)C(O)=C1O` [Vitamin C, vitamin C, reference compound], the “Viability of L02 cells” value in series [2] (5 µM, 12 h pretreatment) was 82.7%. Besides, the FRAP in series [3] (extracts of C. spinarum root bark, means ± SD (n = 3)) was 8.9 ± 1.2 ^b mmol Fe^2+/g. Further, the “DPPH IC50” value in series [5] (extracts of C. spinarum root bark, 30 min, 517 nm, means ± SD (n = 3)) is reported as 4.5 ± 0.1 ^d µg/mL. This compound came in with an IC50 in series [5] (means ± SD (n = 3)) of 25.5 ± 0.3 µM.

Usually viability stands for a read-out of living cells in per cent, often relative to untreated cells. The IC50 is the concentration that gives 50% inhibition. A low value points to greater potency in that assay.

The record behind these values is PMC8145564, “Phenolic Compounds from Carissa spinarum Are Characterized by Their Antioxidant, Anti-Inflammatory and Hepatoprotective Activities” (Antioxidants, 2021).
